In US8993756B2 (Merck Sharp & Dohme Corp., priority 2011, dated 2015):
pIC50: −log10 of the molar value.

Assays:
JAK3 = JAK3 (Homo sapiens (Human), UniProt P52333); experiment: Jak Biochemical HTRF Assay (JAK3); conditions: recombinant GST-tagged catalytic domain, [ATP] 2.9 μM
Method: (§1) Biological Assays Jak Biochemical HTRF Assay Protocol
The ability of compounds to inhibit the activity of JAK1, JAK2, JAK3, and Tyk2 was measured using a recombinant purified GST-tagged catalytic domain for each enzyme (Invitrogen JAK1 #M4290, JAK2 #M4290, JAK3 #M4290, Tyk2 #M4290) in an HTRF format biochemical assay. […] Subsequent reagent additions employed an Agilent Bravo. […] After equilibration, 2 μL of 10×ATP in 1× assay buffer was added to initiate the kinase reaction and the plates were shaken and then incubated at room temperature for 120 minutes. At the end of the incubation, 20 μL of 2× stop buffer (streptavidin-Dylight 650 (Thermo #84547B100 mL), Eu-tagged pY20 antibody (Perkin Elmer #AD0067), EDTA, HEPES, and Triton) was added to quench the reaction. […] After normalization to untreated controls, the percent inhibition of the HTRF signal at each compound concentration was calculated. The plot of percent inhibition versus the log of compound concentration was fit with a 4-parameter dose response equation to calculate IC50 values.

JAK2 = JAK2 (Homo sapiens (Human), UniProt O60674); experiment: Jak Biochemical HTRF Assay (JAK2); conditions: recombinant GST-tagged catalytic domain, [ATP] 8.5 μM
Method: as §1
The ability of compounds to inhibit the activity of JAK1, JAK2, JAK3, and Tyk2 was measured using a recombinant purified GST-tagged catalytic domain for each enzyme (Invitrogen JAK1 #M4290, JAK2 #M4290, JAK3 #M4290, Tyk2 #M4290) in an HTRF format biochemical assay. […] The basic assay protocol is as follows: First, 250 nL of diluted compounds in DMSO were dispensed into the wells of a dry 384-well Black plate (Greiner #781076) using a Labcyte Echo 555 acoustic dispenser. Subsequent reagent additions employed an Agilent Bravo. Next, 18 μL of 1.11× enzyme and 1.11× substrate in 1× assay buffer (Invitrogen kinase buffer # PV3189, 2 mM DTT, 0.05% BSA) were added to the wells and shaken and then preincubated for 30 minutes at room temperature to allow compound binding to equilibrate. After equilibration, 2 μL of 10×ATP in 1× assay buffer was added to initiate the kinase reaction and the plates were shaken and then incubated at room temperature for 120 minutes. At the end of the incubation, 20 μL of 2× stop buffer (streptavidin-Dylight 650 (Thermo #84547B100 mL), Eu-tagged pY20 antibody (Perkin Elmer #AD0067), EDTA, HEPES, and Triton) was added to quench the reaction. Plates were shaken and centrifuged and then incubated 60 minutes at room temperature and then read on a Perkin Elmer Envision (λex=337 nm, λem=665 and 615 nm, TRF delay time=20 μs). HTRF signal=10,000*665 nm reading 615 nm reading. After normalization to untreated controls, the percent inhibition of the HTRF signal at each compound concentration was calculated. The plot of percent inhibition versus the log of compound concentration was fit with a 4-parameter dose response equation to calculate IC50 values.

JAK3, sequence (P52333 822-1111): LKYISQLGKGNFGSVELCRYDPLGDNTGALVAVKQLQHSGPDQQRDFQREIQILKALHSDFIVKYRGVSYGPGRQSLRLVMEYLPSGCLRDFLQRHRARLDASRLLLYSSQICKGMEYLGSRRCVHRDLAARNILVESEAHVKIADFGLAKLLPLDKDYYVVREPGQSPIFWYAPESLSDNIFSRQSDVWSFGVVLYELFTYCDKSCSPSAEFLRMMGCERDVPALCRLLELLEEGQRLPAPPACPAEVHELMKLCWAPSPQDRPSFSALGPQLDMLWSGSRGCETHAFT
JAK2, sequence (O60674 849-1124): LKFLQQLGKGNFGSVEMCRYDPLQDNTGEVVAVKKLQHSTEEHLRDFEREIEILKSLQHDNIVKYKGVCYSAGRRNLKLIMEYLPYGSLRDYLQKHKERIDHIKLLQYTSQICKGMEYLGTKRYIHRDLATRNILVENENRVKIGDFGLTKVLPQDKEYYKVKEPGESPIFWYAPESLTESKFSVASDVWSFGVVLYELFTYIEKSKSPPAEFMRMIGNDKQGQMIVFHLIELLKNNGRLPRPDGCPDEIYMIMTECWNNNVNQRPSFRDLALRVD

Compound	pIC50 (JAK3; given as range class)	pIC50 (JAK2; given as range class)	pIC50 (JAK3)	pIC50 (JAK2)
CCOC(=O)c1c[nH]c2ncnc(-c3cccc(NC(=O)/C=C/c4ccco4)c3)c12 [Example 5-32, ethyl 4-(3-{[(2E)-3-furan-2-ylprop-2-enoyl]amino}phenyl)-7H-pyrrolo[2,3-d]pyrimidine-5-carboxylate]	6.30 to 8.00	< 6.30	–	–
CCOC(=O)c1c[nH]c2ncnc(-c3cc4ccccc4o3)c12 [Example 1-54, ethyl 4-(1-benzofuran-2-yl)-7H-pyrrolo[2,3-d]pyrimidine-5-carboxylate]	–	–	8.40	7.21
C=C(CO)C(=O)Nc1cccc(-c2ncnc3[nH]cc(C(=O)OCC)c23)c1 [Example 15-2, Ethyl-4-(3-{[2-(hydroxymethyl)acryloyl]amino}phenyl)-7H-pyrrolo[2,3-d]pyrimidine-5-carboxylate]	–	–	10.70	< 5.83
C=C(C)C(=O)Nc1cc(-c2ncnc3[nH]cc(C(=O)OCC)c23)ccc1Cl [Example 4-9, ethyl 4-{4-chloro-3-[(2-methylacryloyl)amino]phenyl}-7H-pyrrolo[2,3-d]pyrimidine-5-carboxylate]	–	–	10.89	< 5.83
CCOC(=O)c1c[nH]c2ncnc(-c3ccc4[nH]ccc4c3)c12 [Example 1-53, ethyl 4-(1H-indol-5-yl)-7H-pyrrolo[2,3-d]pyrimidine-5-carboxylate]	–	–	8.82	7.46
CCOC(=O)c1c[nH]c2ncnc(-c3ccccc3F)c12 [Example 1-41, ethyl 4-(2-fluorophenyl)-7H-pyrrolo[2,3-d]pyrimidine-5-carboxylate]	–	–	8.12	6.77
CCOC(=O)c1c[nH]c2ncnc(-c3ccc(N)cc3)c12 [Example 1-80, ethyl 4-(4-aminophenyl)-7H-pyrrolo[2,3-d]pyrimidine-5-carboxylate]	–	–	8.64	7.28
CCOC(=O)c1c[nH]c2ncnc(-c3ccc(C)c(NCC(F)(F)F)c3)c12 [Example 3-2, ethyl 4-{4-methyl-3-[(2,2,2-trifluoroethyl)amino]phenyl}-7H-pyrrolo[2,3-d]pyrimidine-5-carboxylate]	6.30 to 8.00	< 6.30	–	–
C=CC(=O)Nc1cccc(-c2ncnc3[nH]cc(C(=O)OCC)c23)c1 [Example 4-5, ethyl 4-[3-(acryloylamino)phenyl]-7H-pyrrolo[2,3-d]pyrimidine-5-carboxylate]	–	–	10.40	6.10
C=CCOC(=O)c1c[nH]c2ncnc(-c3ccc4cn(C)nc4c3)c12 [Example 2-2, Prop-2-en-1-yl 4-(2-methyl-2H-indazol-6-yl)-7H-pyrrolo[2,3-d]pyrimidine-5-carboxylate]	6.30 to 8.00	6.30 to 8.00	–	–
CCOC(=O)c1c[nH]c2ncnc(-c3ccnc(OC)c3)c12 [Example 1-89, ethyl 4-(2-methoxypyridin-4-yl)-7H-pyrrolo[2,3-d]pyrimidine-5-carboxylate]	6.30 to 8.00	< 6.30	–	–
C=C(C)C(=O)Nc1cccc(-c2ncnc3[nH]cc(-c4ccccc4F)c23)c1 [Example 20-3, N-{3-[5-(2-fluorophenyl)-7H-pyrrolo[2,3-d]pyrimidin-4-yl]phenyl}-2-methylprop-2-enamide]	–	–	9.02	< 5.83
C=C(Br)C(=O)Nc1cccc(-c2ncnc3[nH]cc(C(=O)OCC)c23)c1 [Example 5-5, ethyl 4-{3-[(2-bromoacryloyl)amino]phenyl}-7H-pyrrolo[2,3-d]pyrimidine-5-carboxylate]	–	–	10.37	6.05
CCOC(=O)c1c[nH]c2ncnc(-c3cccc(-c4ccnc(C#N)n4)c3)c12 [Example 7-1, Ethyl 4-(3-(2-cyanopyrimidin-4-yl)phenyl)-7H-pyrrolo[2,3-d]pyrimidine-5-carboxylate]	6.30 to 8.00	< 6.30	–	–
C=C(C)C(=O)Nc1cccc(-c2ncnc3[nH]cc(C(=O)OCC)c23)c1 [Example 4-1, Ethyl-4-{3-[(2-methylacryloyl)amino]phenyl}-7H-pyrrolo[2,3-d]pyrimidine-5-carboxylate]	–	–	9.82	< 5.83
CCOC(=O)c1c[nH]c2ncnc(-c3cc(N)nc(OC)c3)c12 [Example 1-4]	6.30 to 8.00	< 6.30	–	–
C=C(CN)C(=O)Nc1cccc(-c2ncnc3[nH]cc(C(=O)OCC)c23)c1 [Example 13-2, Ethyl 4-(3-(2-(aminomethyl)acrylamido)phenyl)-7H-pyrrolo[2,3-d]pyrimidine-5-carboxylate]	> 8.00	–	–	< 5.83
CCOC(=O)c1c[nH]c2ncnc(-c3ccc(Cl)c(N)c3)c12 [Example 1-24, ethyl 4-(3-amino-4-chlorophenyl)-7H-pyrrolo[2,3-d]pyrimidine-5-carboxylate]	–	–	8.12	6.90
CCOC(=O)c1c[nH]c2ncnc(-c3ccc4c(c3)CCN(C(=O)OC(C)(C)C)C4)c12 [Example 1-74, tent-butyl 6-[5-(ethoxycarbonyl)-7H-pyrrolo[2,3-d]pyrimidin-4-yl]-3,4-dihydroisoquinoline-2(1H)-carboxylate]	6.30 to 8.00	< 6.30	–	–
C=C(C)C(=O)Nc1cccc(-c2ncnc3[nH]cc(-c4cncs4)c23)c1 [Example 21-7, N-(3-(5-(thiazol-5-yl)-7H-pyrrolo[2,3-d]pyrimidin-4-yl)phenyl)methacrylamide]	–	–	8.74	< 6.30
CCOC(=O)c1c[nH]c2ncnc(-c3ccc(COC)c(N)c3)c12 [Example 1-33, ethyl 4-[3-amino-4-(methoxymethyl)phenyl]-7H-pyrrolo[2,3-d]pyrimidine-5-carboxylate]	6.30 to 8.00	< 6.30	–	–
CCOC(=O)c1c[nH]c2ncnc(-c3coc4ccccc34)c12 [Example 1-63, ethyl 4-(1-benzofuran-3-yl)-7H-pyrrolo[2,3-d]pyrimidine-5-carboxylate]	6.30 to 8.00	< 6.30	–	–
CCOC(=O)c1c[nH]c2ncnc(-c3cccc(-n4cccn4)c3)c12 [Example 1-103, ethyl 4-[3-(1H-pyrazol-1-yl)phenyl]-7H-pyrrolo[2,3-d]pyrimidine-5-carboxylate]	6.30 to 8.00	< 6.30	–	–
CCOC(=O)c1c[nH]c2ncnc(-c3cccc(NC(=O)/C=C/c4cccc(OC)c4)c3)c12 [Example 5-24, ethyl 4-(3-{[(2E)-3-(3-methoxyphenyl)prop-2-enoyl]amino}phenyl)-7H-pyrrolo[2,3-d]pyrimidine-5-carboxylate]	6.30 to 8.00	< 6.30	–	–
C=C(C)C(=O)Nc1ccc(C#N)c(-c2ncnc3[nH]cc(C(=O)OCC)c23)c1 [Example 4-22, ethyl 4-{2-cyano-5-[(2-methylacryloyl)amino]phenyl}-7H-pyrrolo[2,3-d]pyrimidine-5-carboxylate]	6.30 to 8.00	< 6.30	–	–
CCOC(=O)c1c[nH]c2ncnc(-c3cccc(NC(=O)/C=C/c4cccs4)c3)c12 [Example 5-21, ethyl 4-(3-{[(2E)-3-thiophen-2-ylprop-2-enoyl]amino}phenyl)-7H-pyrrolo[2,3-d]pyrimidine-5-carboxylate]	6.30 to 8.00	< 6.30	–	–
CCOC(=O)c1c[nH]c2ncnc(-c3cccc(OC(F)(F)F)c3)c12 [Example 1-26, ethyl 4-[3-(trifluoromethoxy)phenyl]-7H-pyrrolo[2,3-d]pyrimidine-5-carboxylate]	6.30 to 8.00	6.30 to 8.00	–	–
CCOC(=O)c1c[nH]c2ncnc(-c3ccc(OC)nc3)c12 [Example 1-93, ethyl 4-(6-methoxypyridin-3-yl)-7H-pyrrolo[2,3-d]pyrimidine-5-carboxylate]	6.30 to 8.00	< 6.30	–	–
C=C(C)C(=O)Nc1cccc(-c2ncnc3[nH]cc(-c4ccncc4)c23)c1 [Example 21-3, N-(3-(5-(pyridin-4-yl)-7H-pyrrolo[2,3-d]pyrimidin-4-yl)phenyl)methacrylamide]	6.30 to 8.00	< 6.30	–	–
CCOC(=O)c1c[nH]c2ncnc(-c3ccccc3)c12 [Example 1-1, Ethyl 4-phenyl-7H-pyrrolo[2,3-d]pyrimidine-5-carboxylate]	–	–	8.26	7.04
